Values of other authors in patent publication US7169586B2, “Mutant N-acetylglutamate synthase and method for L-arginine production” (Ajinomoto Co., Inc., priority 2000, dated 2007).

Key:
[1] = target: NAGS (Escherichia coli, UniProt P0A6C5); conditions: Leisinger and Haas 1975; read-out: Ki, inhibition of NAGS activity
[2] = tested on: argA expression; conditions: Cunin et al. 1986; Leisinger and Haas 1975

Chain of NAGS (P0A6C5 whole entry): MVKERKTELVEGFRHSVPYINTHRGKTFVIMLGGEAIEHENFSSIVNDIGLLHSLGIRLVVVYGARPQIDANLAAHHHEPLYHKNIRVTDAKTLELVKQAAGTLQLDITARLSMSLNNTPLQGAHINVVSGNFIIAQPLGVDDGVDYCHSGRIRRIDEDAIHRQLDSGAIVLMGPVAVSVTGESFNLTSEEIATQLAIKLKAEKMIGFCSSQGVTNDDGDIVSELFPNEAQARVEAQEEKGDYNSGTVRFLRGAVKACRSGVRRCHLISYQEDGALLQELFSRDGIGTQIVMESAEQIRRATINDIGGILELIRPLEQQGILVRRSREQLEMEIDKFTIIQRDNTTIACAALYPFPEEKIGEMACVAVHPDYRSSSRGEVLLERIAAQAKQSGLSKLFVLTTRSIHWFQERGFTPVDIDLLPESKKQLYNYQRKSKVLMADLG

In the case of `N=C(N)NCCC[C@H](N)C(=O)O` [L-Arginine], the Ki [1] is given as 20 µM and the “repression ratio of argA expression” value [2] is given as “greater than 250”.
